Experimental data reported in patent publication US10577406B2, “FKBP-L polypeptides and uses in angiogenesis-mediated disorders” (ALMAC DISCOVERY LIMITED, priority 2006, dated 2020).
Where two headings read alike, the source gives them in different places.

Experiments:
rat aortic ring = type: cell-based, Male Wistar rats
Method: Male Wistar rats were euthanised and the thoracic aorta was aseptically removed and sectioned into 1 cm thick rings. The rings were washed ten times in sterile medium to remove any bacteria and embedded into Matrigel on 24 well plates. The wells were supplemented with 2 ml of medium and increasing concentrations of full-length His-tagged recombinant FKBP-L protein (SEQ ID 1). The plate was incubated for 8 days and post incubation the Matrigel and rings were fixed in 4% PBS buffered paraformaldehyde and stored in PBS. The extent of vessel development was blindly assessed microscopically by an independent investigator and quantified using a calibrated eyepiece graticule (1 mm/100 μm graduation) at 20× magnification (Olympus BX 50). The extent of vessel length, maximum vessel length and number of vessels in each field of view was measured and compared to time matched sham controls and the percent (%) inhibition calculated. Male Wistar rats were euthanised and the thoracic aorta was aseptically removed and sectioned into 1 cm thick rings. The rings were washed ten times in sterile medium to remove any bacteria and embedded into Matrigel on 24 well plates. The wells were supplemented with 2 ml of medium and increasing concentrations of FKBP-L 24mer (SEQ ID NO: 10) and FKBP-L 1-57mer (SEQ ID NO: 6) and recombinant FKBP-L (SEQ ID NO:1). The plate was blindly assessed by an independent investigator and quantified using a calibrated eyepiece graticule (1 mm/100 μm graduation) at 20× magnification (Olympus BX 50). The extent of vessel length, maximum vessel length and number of vessels in each field of view was measured and compared to time matched sham controls and the % inhibition calculated. In order to determine whether the FKBP-L 24mer exerted a permanent or static effect on endothelial cell sprouting the rat aortic ring assay was used. Male Wistar rats were euthanised and the thoracic aorta was aseptically removed and sectioned into 1 cm thick rings. The rings were washed ten times in sterile medium to remove any bacteria and embedded into Matrigel on 24 well plates. The wells were supplemented with 2 ml of medium. The plates were incubated for up to 15 days. Each day the Matrigel rings were photographed and returned to their incubator. Two further experiments were carried out: (A) addition of FKBP-L 24mer to the medium after the vessels had grown for seven days; and (B) addition of FKBP-L 24mer to the medium at the initial embedding stage, with subsequent removal after seven days and replacement with fresh medium for a further seven days. The extent of vessel development was quantified using a calibrated eyepiece graticule (1 mm/100 μm graduation) at 20× magnification (Olympus BX 50), and measured electronically using Lucia imaging software. Vessel length was measured and compared to time matched sham controls and the percent (%) inhibition calculated.

HMEC-1 = test: cell adhesion assay on Matrigel (MTT readout); type: cell-based, Human; conditions: 1 h at 37° C.
Method: A 96-well plate was pre-coated with a thin layer of Matrigel which was allowed to set overnight. The plate wells were blocked with 0.5% BSA for 1 h at 37° C. in a 95% air/5% CO2 incubator. Human microvascular endothelial cells (HMEC-1) were trypsinised and re-suspended in fresh medium and seeded at a density of 20000 cells per well. The plates were placed at 4° C. for 10 min to allow the cells to sediment to the bottom of the wells. The required amount of medium supplemented with the FKBP-L 24mer was added to each well and the plate incubated for 1 h at 37° C. The excess medium and unattached cells were removed and the wells washed three times with sterile PBS. The wells were supplemented with fresh medium and MTT added (5 mgml^−1). The plate was incubated for a further 4 h at 37° C. DMSO was added to each well to solubilise the MTT to formazen and the plate read at 540nm, with the relative absorbance of control wells compared to FBKP-L 24mer-supplemented wells.

[1] = tested on: MDA231 (breast tumor cell line; CD44 +ve); test: tumor cell migration, wound closure assay, MDA231; type: cell-based
Method: In these experiments, the effect of recombinant FKBP-L on tumor cell migration was assessed. The in vitro migration assay used in these studies is a modified version of the method described by Ashton et al (1999) see supra. PC3, MDA231, and HT29 tumor cells were plated into individual chambers on a glass slide and grown to 90% confluence overnight. The medium was removed and the monolayers wounded. The monolayer was re-supplemented with fresh medium and the required volume of His-tagged recombinant FKBP-L protein (SEQ ID NO: 1) was added to give the final concentrations shown. The monolayers were incubated for 24 hours and then fixed in 4% PBS buffered paraformaldehyde.
The extent of “wound” closure was blindly assessed microscopically by an independent investigator and quantified using a calibrated eyepiece graticule (1 mm/100 μm graduation) at 20× magnification (Olympus BX 50). The extent of closure in the FKBP-L treated slides was compared to time matched sham-treated controls and the percent inhibition of wound closure compared to time matched controls calculated. […]
The extent of “wound” closure was blindly assessed microscopically by an independent investigator and quantified using a calibrated eyepiece graticule (1 mm/100 μm graduation) at 20× magnification (Olympus BX 50). […]

“H-QIRQQPRDPPTETLELEVSPDPAS-OH [FKBP-L 24mer]” was tested, and the IC50 (rat aortic ring) was 0.0002 nM, the “vessel development after addition at day seven” value (rat aortic ring; 10^−9 M added after vessels had developed for seven days, vs time matched controls) was “complete inhibition of vessel development” and the “vessel development, exposure from initial embedding” value (rat aortic ring; medium supplemented from embedding, seven days) was “almost completely inhibited vessel development”. The “vessel development after removal of the peptide” value (rat aortic ring; supplemented medium removed after seven days, fresh medium added) was “continued growth of vessels”, the “effect on cell adhesion” value (HMEC-1) was “potent inhibitor of HMEC-1 adhesion” and the “effect on tumor cell migration” value ([1]; MDA-231, 10^−14-10^−7 M, 24 h) was “can inhibit”.

B1: full length recombinant FKBP-L: recombinant full length his-tagged FKBP-L protein (SEQ ID NO: 1) expressed in BL21 (DE3) (protein, listed as Homo sapiens)
chain: MRGSHHHHHHGMASMTGGQQMGRDLYDDDDKDRWGSMETPPVNTIGEKDTSQPQQEWEKNLRENLDSVIQIRQQPRDPPTETLELEVSPDPASQILEHTQGAEKLVAELEGDSHKSHGSTSQMPEALQASDLWYCPDGSFVKKIVIRGHGLDKPKLGSCCRVLALGFPFGSGPPEGWTELTMGVGPWREETWGELIEKCLESMCQGEEAELQLPGHTGPPVGLTLASFTQGRDSWELETSEKEALAREERARGTELFRAGNPEGAARCYGRALRLLLTLPPPGPPERTVLHANLAACQLLLGQPQLAAQSCDRVLEREPGHLKALYRRGVAQAALGNLEKATADLKKVLAIDPKNRAAQEELGKVVIQGKNQDAGLAQGLRKMFG
modifications: His tag
In the case of B1, the “inhibition of number of vessels formed” value (rat aortic ring; 500 ngml^−1 (optimal), 8 days) is reported as 65%, the “inhibition of maximum vessel length compared to time matched controls” value (rat aortic ring; 1000 ngml^−1, 8 days) is reported as 70% and the “inhibition of mean vessel length compared to time matched controls” value (rat aortic ring; 1000 ngml^−1, 8 days) is reported as 63%. For the same molecule, the IC50 (rat aortic ring; read-out: IC50, number of vessels) was 1.56 nM and the “effect on tumor cell migration” value ([1]; MDA231, 24 hours) was “inhibits tumor cell migration in a dose-dependent manner”.
